Assay results published in patent US11312727B1, “Macrocyclic flu endonuclease inhibitors” (Janssen BioPharma, Inc., priority 2018, dated 2022).

Experiments:
in vitro = details: human, CC50, uninfected A549 cells, CellTiter-Glo
[1] = tested on: Influenza strain A549 A/WSN/33 (H1N1); test: microbe, parasite or virus in culture; assay type: cell-based; details: Influenza A virus, A549, 20 h, A549 cells, influenza A/WSN/33 (H1N1), 20 hours incubation; read-out: A549_A(H1N1) EC50

C[C@H]1/C=C/COc2c(F)cccc2[C@H](c2ccccc2)N2CN1C(=O)c1c(O)c(=O)ccn12 (single isomer, unassigned) [Compound 141BB, (9*S,18*S,E)-4-fluoro-12-hydroxy-9-methyl-18-phenyl-6,9-dihydro-18H-10,17-methanobenzo[b]pyrido[1,2-f][1]oxa[5,6,9]triazacyclotridecine-11,13-dione]
CC50 (in vitro): > 20000 nM | EC50 [1]: 627 nM

O=C1c2c(O)c(=O)ccn2N2CN1C/C=C\COc1c(cccc1C(F)(F)F)[C@H]2c1ccccc1 (single isomer, unassigned) [Compound 130A, (18*R,Z)-12-hydroxy-18-phenyl-4-(trifluoromethyl)-6,9-dihydro-18H-10,17-methanobenzo[b]pyrido[1,2-f][1]oxa[5,6,9]triazacyclotridecine-11,13-dione]
CC50 (in vitro): > 200 nM | EC50 [1]: 4.8 nM

O=C1c2c(O)c(=O)ccn2N2CN1CCOC/C=C\c1cccc3c1[C@@H]2c1ccccc1CC3 (single isomer, unassigned) [Compound 83B, (13Z,23b*S)-6-hydroxy-9,10,12,18,19,23b-hexahydro-1,8-methanobenzo[4,5]cyclohepta[1,2,3-qr]pyrido[1,2-c][9,2,3,6]benzoxatriazacyclotetradecine-5,7-dione]
CC50 (in vitro): > 200 nM | EC50 [1]: 6 nM

CC[C@H]1/C=C/COc2cc(F)c(F)c3c2[C@@H](c2ccccc2SC3)N2CN1C(=O)c1c(O)c(=O)ccn12 (single isomer, unassigned) [Compound 126BA, (9*S,17a*S,E)-9-ethyl-24,25-difluoro-12-hydroxy-2,6,9,17a-tetrahydro-3,4-(epiprop[1]en[1]yl[3]ylidene)-10,17-methanobenzo[6,7]thiepino[4,5-c]pyrido[1,2-f][1]oxa[5,6,9]triazacyclotridecine-11,13-dione]
CC50 (in vitro): > 50 nM | EC50 [1]: 0.23 nM

COc1ccccc1[C@H]1c2cccc(F)c2OC/C=C\CN2CN1n1ccc(=O)c(O)c1C2=O (single isomer, unassigned) [Compound 117B, (18*S,*Z)-4-fluoro-12-hydroxy-18-(2-methoxyphenyl)-6,9-dihydro-18H-10,17-methanobenzo[b]pyrido[1,2-f][1]oxa[5,6,9]triazacyclotridecine-11,13-dione]
CC50 (in vitro): > 200 nM | EC50 [1]: > 100 nM

O=C1c2c(O)c(=O)ccn2N2CN1C/C=C\COc1ccc(Cl)cc1[C@@H]2c1ccccc1 (single isomer, unassigned) [Compound 51B]
CC50 (in vitro): > 2000 nM | EC50 [1]: 10 nM

CC[C@H]1/C=C/COc2c(ccc(F)c2F)[C@@H](c2ccccc2)N2CN1C(=O)c1c(O)c(=O)ccn12 [Compound 101AA, (9S,18R,E)-9-ethyl-3,4-difluoro-12-hydroxy-18-phenyl-6,9-dihydro-18H-10,17-methanobenzo[b]pyrido[1,2-f][1]oxa[5,6,9]triazacyclotridecine-11,13-dione]
CC50 (in vitro): > 100 nM | EC50 [1]: 0.7 nM

C[C@H]1/C=C/COc2cc(F)c(F)c3c2[C@@H](c2ccccc2SC3)N2CN1C(=O)c1c(O)c(=O)ccn12 (single isomer, unassigned) [Compound 162B, (9*S,17a*S,*E)-24,25-difluoro-12-hydroxy-9-methyl-2,6,9,17a-tetrahydro-3,4-(epiprop[1]en[1]yl[3]ylidene)-10,17-methanobenzo[6,7]thiepino[4,5-c]pyrido[1,2-f][1]oxa[5,6,9]triazacyclotridecine-11,13-dione]
CC50 (in vitro): > 100 nM | EC50 [1]: 0.23 nM

CC[C@H]1/C=C/COc2c(F)cccc2[C@H](c2ccccn2)N2CN1C(=O)c1c(O)c(=O)ccn12 (single isomer, unassigned) [Compound 154BB, (9*S,18*R,*E)-9-ethyl-4-fluoro-12-hydroxy-18-(pyridin-2-yl)-6,9-dihydro-18H-10,17-methanobenzo[b]pyrido[1,2-f][1]oxa[5,6,9]triazacyclotridecine-11,13-dione]
CC50 (in vitro): > 100 nM | EC50 [1]: 3.4 nM

CSc1ccccc1[C@@H]1c2cccc(F)c2OC/C=C\CN2CN1n1ccc(=O)c(O)c1C2=O (single isomer, unassigned) [Compound 119B, (18*S,*Z)-4-fluoro-12-hydroxy-18-(2-(methylthio)phenyl)-6,9-dihydro-18H-10,17-methanobenzo[b]pyrido[1,2-f][1]oxa[5,6,9]triazacyclotridecine-11,13-dione]
CC50 (in vitro): > 200 nM | EC50 [1]: 22 nM

O=C1c2c(O)c(=O)ccn2N2CN1C1(/C=C/COc3c(ccc(F)c3F)[C@@H]2c2ccccn2)CCC1 (single isomer, unassigned) [Compound 172B, (18′*R,*E)-3′,4′-difluoro-12′-hydroxy-18′-(pyridin-2-yl)-6′H,18′H-spiro[cyclobutane-1,9′-[10,17]methanobenzo[b]pyrido[1,2-f][1]oxa[5,6,9]triazacyclotridecine]-11′,13′-dione]
CC50 (in vitro): > 100 nM | EC50 [1]: > 50 nM

O=C1c2c(O)c(=O)ccn2N2CN1CC/C=C\c1cccc3c1C2c1ccccc1CC3 (stereo not shown) [Compound 73, (11*Z)-6-hydroxy-10,16,17,21b-tetrahydro-9H-1,8-methanobenzo[4,5]cyclohepta[1,2,3-op]pyrido[1,2-c][2,3,6]benzotriazacyclododecine-5,7-dione]
CC50 (in vitro): > 2000 nM | EC50 [1]: 16 nM

O=C1c2c(O)c(=O)ccn2N2CN1C/C=C\COc1cc(F)c(F)cc1[C@H]2c1ccccn1 (single isomer, unassigned) [Compound 70B, (18*S,*Z)-2,3-difluoro-12-hydroxy-18-(pyridin-2-yl)-6,9-dihydro-18H-10,17-methanobenzo[b]pyrido[1,2-f][1]oxa[5,6,9]triazacyclotridecine-11,13-dione]
CC50 (in vitro): > 200 nM | EC50 [1]: 32 nM

O=C1c2c(O)c(=O)ccn2N2CN1CC/C=C\COc1ccc(F)c3c1[C@H]2c1cccc(F)c1SC3 (single isomer, unassigned) [Compound 151B, (1*S,13*Z)-20,25-difluoro-7-hydroxy-16-oxa-23-thia-2,3,10-triazahexacyclo[15.12.1.12,10.03,8.021,30.024,29]hentriaconta-4,7,13,17,19,21(30),24(29),25,27-nonaene-6,9-dione]
CC50 (in vitro): > 100 nM | EC50 [1]: 4.4 nM

O=C1c2c(O)c(=O)ccn2N2CN1C/C=C\COc1cc(Cl)ccc1[C@H]2c1ccccc1 (single isomer, unassigned) [Compound 72A, (18*R,Z)-3-chloro-12-hydroxy-18-phenyl-6,9-dihydro-18H-10,17-methanobenzo[b]pyrido[1,2-f][1]oxa[5,6,9]triazacyclotridecine-11,13-dione]
CC50 (in vitro): > 2000 nM | EC50 [1]: > 1000 nM

CC[C@@H]1CCCOc2c(ccc(F)c2F)[C@H](c2ccccc2)N2CN1C(=O)c1c(O)c(=O)ccn12 (single isomer, unassigned) [Compound 164B, (9*R,18*S)-9-ethyl-3,4-difluoro-12-hydroxy-18-phenyl-6,7,8,9-tetrahydro-18H-10,17-methanobenzo[b]pyrido[1,2-f][1]oxa[5,6,9]triazacyclotridecine-11,13-dione]
CC50 (in vitro): > 100 nM | EC50 [1]: 2.4 nM

O=C1c2c(O)c(=O)ccn2N2CN1C/C=C\COc1ccccc1[C@H]2c1ccccc1F (single isomer, unassigned) [Compound 36B, (18*S,Z)-18-(2-fluorophenyl)-12-hydroxy-6,9-dihydro-18H-10,17-methanobenzo[b]pyrido[1,2-f][1]oxa[5,6,9]triazacyclotridecine-11,13-dione]
CC50 (in vitro): > 2000 nM | EC50 [1]: 815 nM

O=C1c2c(O)c(=O)ccn2N2CN1C[C@@H]1C[C@H]1COc1c(F)cccc1[C@@H]2c1ccccc1 (single isomer, unassigned) [Compound 125BA, (1a*S,8*R,17a*S)-4-fluoro-14-hydroxy-8-phenyl-1a,2,17,17a-tetrahydro-1H,8H-9,16-methanobenzo[b]cyclopropa[k]pyrido[1,2-f][1]oxa[5,6,9]triazacyclotridecine-13,15-dione]
CC50 (in vitro): > 200 nM | EC50 [1]: > 100 nM

O=C1c2c(O)c(=O)ccn2N2CN1CC/C=C\COc1cccc3c1[C@H]2c1ccccc1SC3 (single isomer, unassigned) [Compound 37B, (1*S,13Z)-7-hydroxy-16-oxa-23-thia-2,3,10-triazahexacyclo[15.12.1.12,10.03,8.021,30.024,29]hentriaconta-4,7,13,17,19,21(30),24(29),25,27-nonaene-6,9-dione]
CC50 (in vitro): > 200 nM | EC50 [1]: 4 nM

CC[C@@H]1C/C=C/COc2c(F)cccc2[C@H](c2ccccc2)N2CN1C(=O)c1c(O)c(=O)ccn12 (single isomer, unassigned) [Compound 105BB, (2*S,9*R,*E)-9-ethyl-33-fluoro-15-hydroxy-2-phenyl-12,13,14,16-tetrahydro-11H-4-oxa-1(1,3)-pyrido[2,1-f][1,2,4]triazina-3(1,2)-benzenacyclononaphan-6-ene-14,16-dione]
CC50 (in vitro): > 200 nM | EC50 [1]: > 100 nM

O=C1c2c(O)c(=O)ccn2N2CN1CC[C@H]1C[C@@H]1COc1cccc3c1[C@H]2c1ccccc1SC3 (single isomer, unassigned) [Compound 131BB, (1*S,13*R,15*S)-7-hydroxy-17-oxa-24-thia-2,3,10-triazaheptacyclo[16.12.1.12,10.03,8.013,15.022,31.025,30]dotriaconta-4,18,20,22(31),25(30),26,28-heptaene-6,9-dione]
CC50 (in vitro): > 200 nM | EC50 [1]: > 100 nM

CC(C)[C@H]1/C=C/COc2cc(F)c(F)c3c2[C@@H](c2ccccc2SC3)N2CN1C(=O)c1c(O)c(=O)ccn12 (single isomer, unassigned) [Compound 169AA, (9*S,17a*S,*E)-24,25-difluoro-12-hydroxy-9-isopropyl-2,6,9,17a-tetrahydro-3,4-(epiprop[1]en[1]yl[3]ylidene)-10,17-methanobenzo[6,7]thiepino[4,5-c]pyrido[1,2-f][1]oxa[5,6,9]triazacyclotridecine-11,13-dione]
CC50 (in vitro): > 100 nM | EC50 [1]: 48 nM

O=C1c2c(O)c(=O)ccn2N2CN1C/C=C\COc1cc(Cl)ccc1[C@@H]2c1ccccc1 (single isomer, unassigned) [Compound 72B, (18*S,Z)-3-chloro-12-hydroxy-18-phenyl-6,9-dihydro-18H-10,17-methanobenzo[b]pyrido[1,2-f][1]oxa[5,6,9]triazacyclotridecine-11,13-dione]
CC50 (in vitro): > 2000 nM | EC50 [1]: 8 nM
